# The supplement of paper PMC4862054
# How the values were obtained:
# Conditions in all cases: incubation time: 72 h
# MDA-MB-453 [1] = test: normalised response (% of control), CellTox Green; higher = less cell death (100 = DMSO, 0 = benzethonium chloride kill control)
# Summary of the method: (§1)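 A 20 µl suspension of breast cancer cells was seeded into each well of 384-well plates containing compound at 5 concentrations in 10-fold steps over a compound-specific 10,000-fold range. After 72 h incubation, CellTox Green fluorescence (485/520 nm) was read first, and CellTiter-Glo luminescence was read after 10 min at room temperature. Each plate was normalised against 0.1 % DMSO (100) and a positive kill control (0), and each value is the normalised signal at one concentration.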
# CAL-120 [2] = test: as above
# Summary of the method: as §1
# BT-474 [3] = test: as above
# Summary of the method: as §1
# DU-4475 [4] = test: as above
# Summary of the method: as §1
# CAL-85-1 [5] = test: as above
# Summary of the method: as §1
# MDA-MB-436 [6] = test: as above
# Summary of the method: as §1
# CAL-51 [7] = test: as above
# Summary of the method: as §1
# HDQ-P1 [8] = test: as above
# Summary of the method: as §1
# HCC1599 [9] = test: as above
# Summary of the method: as §1
# CAL-148 [10] = test: as above
# Summary of the method: as §1
# MCF-10A [11] = test: as above
# Summary of the method: as §1
# MDA-MB-231 [12] = test: as above
# Summary of the method: as §1
# BT-549 [13] = test: as above
# Summary of the method: as §1
# MFM-223 [14] = test: as above
# Summary of the method: as §1
# HCC1143 [15] = test: as above
# Summary of the method: as §1
# MDA-MB-468 [16] = test: as above
# Summary of the method: as §1
# MDA-MB-453 [17] = test: normalised response (% of control), CellTiter-Glo; higher = more viable cells (100 = DMSO, 0 = benzethonium chloride kill control)
# Protocol: (§2)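 DSRT, 72 h incubation, CellTox Green / CellTiter-Glo readout. Signal is normalised to DMSO and benzethonium chloride controls. Value is the normalised response at dose 3.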
# CAL-120 [18] = test: as above
# Protocol: as §2
# SK-BR-3 = test: as above
# Protocol: as §2
# BT-474 [19] = test: as above
# Protocol: as §2
# DU-4475 [20] = test: as above
# Protocol: as §2
# CAL-85-1 [21] = test: as above
# Protocol: as §2
# MDA-MB-436 [22] = test: as above
# Protocol: as §2
# CAL-51 [23] = test: as above
# Protocol: as §2
# HDQ-P1 [24] = test: as above
# Protocol: as §2
# HCC1599 [25] = test: as above
# Protocol: as §2
# CAL-148 [26] = test: as above
# Protocol: as §2
# MCF-10A [27] = test: as above
# Protocol: as §2
# MDA-MB-231 [28] = test: as above
# Protocol: as §2
# HCC1937 [29] = test: as above
# Protocol: as §2
# BT-549 [30] = test: as above
# Protocol: as §2
# MFM-223 [31] = test: as above
# Protocol: as §2
# HCC1143 [32] = test: as above
# Protocol: as §2
# Hs578T [33] = test: as above
# Protocol: as §2
# MDA-MB-468 [34] = test: as above
# Protocol: as §2
# HCC1937 [35] = test: normalised response (% of control), CellTox Green; higher = less cell death (100 = DMSO, 0 = benzethonium chloride kill control)
# Summary of the method: as §1
# Hs578T [36] = test: as above
# Summary of the method: as §1
Structure (SMILES),normalised response (MDA-MB-453 [1]) [%],normalised response (CAL-120 [2]) [%],normalised response (BT-474 [3]) [%],normalised response (DU-4475 [4]) [%],normalised response (CAL-85-1 [5]) [%],normalised response (MDA-MB-436 [6]) [%],normalised response (CAL-51 [7]) [%],normalised response (HDQ-P1 [8]) [%],normalised response (HCC1599 [9]) [%],normalised response (CAL-148 [10]) [%],normalised response (MCF-10A [11]) [%],normalised response (MDA-MB-231 [12]) [%],normalised response (BT-549 [13]) [%],normalised response (MFM-223 [14]) [%],normalised response (HCC1143 [15]) [%],normalised response (MDA-MB-468 [16]) [%],normalised response (MDA-MB-453 [17]) [%],normalised response (CAL-120 [18]) [%],normalised response (SK-BR-3) [%],normalised response (BT-474 [19]) [%],normalised response (DU-4475 [20]) [%],normalised response (CAL-85-1 [21]) [%],normalised response (MDA-MB-436 [22]) [%],normalised response (CAL-51 [23]) [%],normalised response (HDQ-P1 [24]) [%],normalised response (HCC1599 [25]) [%],normalised response (CAL-148 [26]) [%],normalised response (MCF-10A [27]) [%],normalised response (MDA-MB-231 [28]) [%],normalised response (HCC1937 [29]) [%],normalised response (BT-549 [30]) [%],normalised response (MFM-223 [31]) [%],normalised response (HCC1143 [32]) [%],normalised response (Hs578T [33]) [%],normalised response (MDA-MB-468 [34]) [%],normalised response (HCC1937 [35]) [%],normalised response (Hs578T [36]) [%]
CCc1cncnc1N1CCN(Cc2nc3ccc(C(F)(F)F)cc3[nH]2)CC1 (100 nM),87.5,96,97.9,101,99.3,99.8,86.3,96,99.1,108,86.4,105,83.3,106,118,108,106,109,107,105,106,95.8,108,88.2,97.7,99.9,116,108,110,98.6,92.9,110,107,109,106,,
C[C@H]1C[C@@H]2[C@H]([C@@H](O)C[C@@]3(C)[C@H]2CC[C@]3(O)C(=O)CO)[C@@]2(C)C=CC(=O)C=C12 [Methylprednisolone] (100 nM),76.2,103,98.9,102,102,89.9,111,,110,107,101,140,103,78.2,90.4,169,99.9,76.9,104,152,108,115,104,86.4,90.5,97.9,109,106,156,98.3,101,109,108,107,111,115,89
O=C(O)C(=O)O.[NH-][C@@H]1CCCC[C@H]1[NH-].[Pt+2] [Oxaliplatin] (100 nM),97.2,100,93,96.8,93.8,,84.7,110,94.2,61.1,70,89.6,110,76.6,89.3,110,87.5,103,84.8,99,92.5,96.9,103,77,104,93,85.6,97.5,97.2,93.1,108,94.3,99,97.9,89.3,79.4,
CC[C@H](C)C(=O)O[C@H]1C[C@H](O)C=C2C=C[C@H](C)[C@H](CC[C@@H](O)C[C@@H](O)CC(=O)O)[C@H]21 [Pravastatin] (100 nM),98.4,97.2,99.2,101,97.9,-74.8,73.3,100,96.2,88.8,99,102,103,98.2,79.9,107,85.9,101,93.6,99.2,95.7,99,13.5,63.4,98,88.7,86.3,97.4,97.8,93.7,101,88.8,101,93.2,97.7,95.9,
COc1cc([C@@H]2c3cc4c(cc3[C@@H](O[C@@H]3O[C@@H]5CO[C@@H](c6cccs6)O[C@H]5[C@H](O)[C@H]3O)[C@H]3COC(=O)[C@H]23)OCO4)cc(OC)c1O [Teniposide] (100 nM),107,96,99.7,93.6,89.4,95.1,74.2,102,91.3,36.3,83.6,103,90.5,99.3,111,54.9,118,94.7,58.5,87.8,69.2,91.6,62.6,78.5,96.4,66.7,74.5,88.2,94.3,91.9,68,108,83.2,90,79.3,,
COc1cc2nccc(Oc3ccc(NC(=O)Nc4cc(C)on4)c(Cl)c3)c2cc1OC [Tivozanib] (100 nM),97.2,96.9,96,96.9,98.6,,108,94.8,104,102,96.3,94.9,109,103,89,110,87.7,94.2,83.3,93,98.1,99.5,91.2,99.6,104,102,88.5,94.5,96.2,95.1,106,86.1,102,93.7,93.6,117,
CC1=C(/C=C/C(C)=C/C=C/C(C)=C/C(=O)O)C(C)(C)CCC1 [Tretinoin] (100 nM),109,101,103,108,102,106,102,108,99.1,95.3,105,117,115,103,96.3,159,108,105,79.8,92.7,98.3,97.5,100,87.7,100,103,91.9,88.7,102,95.8,102,93.7,97.4,98.5,92,92.8,
COc1cc2c(NC3CCN(C(C)C)CC3)nc(C3CCCCC3)nc2cc1OCCCN1CCCC1 [UNC0638] (100 nM),99.2,100,101,97.4,111,94.6,99.5,102,101,96.8,98.3,102,63.7,102,107,119,92.7,101,80.1,94.1,86.5,98.8,102,97.3,97,80.8,88,88,92.2,92.2,101,88.6,100,97.4,83.8,,
Oc1ncc(N(CCCl)CCCl)c(O)n1 [Uracil mustard] (100 nM),110,106,104,108,114,109,109,,102,103,114,118,111,102,113,154,95.5,103,101,106,99.1,96.7,98.9,110,104,95.5,100,101,100,98,105,104,100,102,94.6,88,111
